Experiments:
[1] = test system: R12.23 (DNA, aptamer) TGTACCGTCTGAGCGATTCGTACGAACGGCTTTGTACTGTTTGCACTGGCGGATTTAGCCAGTCAGTGTTAAGGAGTGC; experiment: competitive elution of fluorescent ssDNA from target beads; settings: 100 mM NaCl, 2 mM MgCl2; 20 mM Tris-HCl, 10% methanol; 100 µM eluent, 5 nM ssDNA; buffer alone 0.15; from immobilised desethyl atrazine
[2] = test system: 34-base truncation of R12.23 (DNA, aptamer) TACTGTTTGCACTGGCGGATTTAGCCAGTCAGTG; experiment: bead capture from processed river water, capillary electrophoresis quantification; settings: 100 mM NaCl, 2 mM MgCl2; 20 mM Tris-HCl; extract of river water spiked with 40 nM; 37% (1.5 nmol) recovered
[3] = test system: R12.23 (DNA, aptamer) TGTACCGTCTGAGCGATTCGTACGAACGGCTTTGTACTGTTTGCACTGGCGGATTTAGCCAGTCAGTGTTAAGGAGTGC; experiment: fluorescence saturation bead-based binding assay; settings: 100 mM NaCl, 2 mM MgCl2; immobilised compound; 20 mM Tris-HCl, 10% methanol; reported by authors as Kd for atrazine
[4] = test system: R12.28 (DNA, aptamer) TGTACCGTCTGAGCGATTCGTACCATTAGTGGGTGCTCCTTACCTGATGGTCATCTAGCCAGTCAGTGTTAAGGAGTGC; experiment: fluorescence saturation bead-based binding assay; settings: 100 mM NaCl, 2 mM MgCl2; immobilised compound; 20 mM Tris-HCl, 10% methanol; reported as Kd for atrazine; some non-specific bead binding
[5] = test system: R12.57 (DNA, aptamer) TGTACCGTCTGAGCGATTCGTACGGATTGGGTTTGCACTTTACCTGCGGTGCATCGCAGCCAGTCAGTGTTAAGGAGTGC; experiment: fluorescence saturation bead-based binding assay; settings: 100 mM NaCl, 2 mM MgCl2; immobilised compound; 20 mM Tris-HCl, 10% methanol; reported as Kd for atrazine; some non-specific bead binding

Row | Compound | Normalized Average Fluorescence [1] | also measured
1 | CCC(=O)Nc1ccc(Cl)c(Cl)c1 | 0.65 ± 0.13 | –
2 | CCNc1nc(Cl)nc(NC(C)C)n1 | 1 ± 0.11 | binding [2]: yes
3 | CC(C)Nc1nc(Cl)nc(NC(=O)CCCCCNC(=O)CCCC[C@@H]2SC[C@@H]3NC(=O)N[C@@H]32)n1 | – | Kd [3]: 0.62 ± 0.21 nM; Kd [4]: 5.10 ± 1.32 nM; Kd [5]: 20.78 ± 4.74 nM
4 | Nc1nc(N)nc(Cl)n1 | 0.47 ± 0.10 | –
5 | CC(C)Nc1nc(N)nc(Cl)n1 | −0.054 ± 0.44 | –
6 | O=C(O)COc1ccc(Cl)cc1Cl | 0.64 ± 0.11 | –
7 | CCNc1nc(Cl)nc(NCC)n1 | 0.47 ± 0.14 | –

— paper PMC4159853 (2014)
